Tests used:
Settings in all cases: 48 h
NOMO1 [1] = assay: cell viability relative to DMSO control; higher = less cytotoxic
Outline: (§1)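 Leukemia cells (NOMO1 or SEM, 500 cells/well; P12-Ichikawa, 1000 cells/well) were seeded in 5 μl in 1536-well plates after at least four passages of adaptation to each medium. They received library compounds in DMSO by pin dosing, 11 threefold points from 47 μM to 0.79 nM. Luminescence with CellTiter-Glo One was read after 48 h at 37°C. Viability is stated per plate relative to DMSO wells, with cell-free wells as background.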

P12-Ichikawa [2] = assay: as above
Outline: as §1

SEM cells [3] = assay: as above
Outline: as §1

NOMO1 [4] = assay: AUC of viability dose-response curve (% viability x log10 dose units); higher = less sensitive
Outline: (§2)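 Library compounds in DMSO were applied for 48 h at 37°C at 11 threefold doses (47 μM to 0.79 nM) to medium-adapted leukemia cells in 1536-well plates holding 500 or 1000 cells/well. Luminescence from CellTiter-Glo One was normalised plate by plate against DMSO and cell-free wells. Area under the curve came from trapezoidal integration of a log-logistic fit, after scaling curves that rose above full viability and discarding those that failed quality control. The fit had four parameters and used log10 doses.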

P12-Ichikawa [5] = assay: as above
Outline: as §2

SEM cells [6] = assay: as above
Outline: as §2

CNC(=O)c1ccc(N2C(=S)N(c3ccc(C#N)c(C(F)(F)F)c3)C(=O)C2(C)C)cc1F
cell viability [%]
Settings	NOMO1 [1]	P12-Ichikawa [2]	SEM cells [3]
HPLM + 10% dialyzed FBS, 0.000781 µM	87.7	98.8	87.9
HPLM + 10% dialyzed FBS, 0.00234 µM	114	106	96.9
HPLM + 10% dialyzed FBS, 0.00702 µM	105	79.6	42.8
HPLM + 10% dialyzed FBS, 0.0211 µM	125	110	113
HPLM + 10% dialyzed FBS, 0.0632 µM	117	123	105
HPLM + 10% dialyzed FBS, 0.19 µM	127	117	113
HPLM + 10% dialyzed FBS, 0.569 µM	120	115	112
HPLM + 10% dialyzed FBS, 1.71 µM	115	124	109
HPLM + 10% dialyzed FBS, 5.12 µM	143	114	117
HPLM + 10% dialyzed FBS, 15.4 µM	127	108	121
HPLM + 10% dialyzed FBS, 46.1 µM	111	107	105
RPMI 5 mM glucose + 10% FBS, 0.000781 µM	93	107	71.3
RPMI 5 mM glucose + 10% FBS, 0.00234 µM	124	119	74
RPMI 5 mM glucose + 10% FBS, 0.00702 µM	121	72	9.73
RPMI 5 mM glucose + 10% FBS, 0.0211 µM	118	109	74.8
RPMI 5 mM glucose + 10% FBS, 0.0632 µM	125	123	73.9
RPMI 5 mM glucose + 10% FBS, 0.19 µM	111	117	81.9
RPMI 5 mM glucose + 10% FBS, 0.569 µM	111	122	86.3
RPMI 5 mM glucose + 10% FBS, 1.71 µM	121	120	72.2
RPMI 5 mM glucose + 10% FBS, 5.12 µM	123	124	90.1
RPMI 5 mM glucose + 10% FBS, 15.4 µM	121	116	76.1
RPMI 5 mM glucose + 10% FBS, 46.1 µM	115	98.5	64.1
RPMI 5 mM glucose + 10% dialyzed FBS, 0.000781 µM	102	102	87.7
RPMI 5 mM glucose + 10% dialyzed FBS, 0.00234 µM	112	113	99.6
RPMI 5 mM glucose + 10% dialyzed FBS, 0.00702 µM	103	80.4	31.2
RPMI 5 mM glucose + 10% dialyzed FBS, 0.0211 µM	113	108	116
RPMI 5 mM glucose + 10% dialyzed FBS, 0.0632 µM	121	120	109
RPMI 5 mM glucose + 10% dialyzed FBS, 0.19 µM	116	117	111
RPMI 5 mM glucose + 10% dialyzed FBS, 0.569 µM	124	119	104
RPMI 5 mM glucose + 10% dialyzed FBS, 1.71 µM	126	122	110
RPMI 5 mM glucose + 10% dialyzed FBS, 5.12 µM	115	122	104
RPMI 5 mM glucose + 10% dialyzed FBS, 15.4 µM	121	112	110
RPMI 5 mM glucose + 10% dialyzed FBS, 46.1 µM	114	91.1	87.9

AUC of viability dose-response curve
Settings	HPLM + 10% dialyzed FBS	RPMI 5 mM glucose + 10% FBS	RPMI 5 mM glucose + 10% dialyzed FBS
NOMO1 [4]	457	472	460
P12-Ichikawa [5]	453	456	457

Nc1nc2ccc(OC(F)(F)F)cc2s1
cell viability [%], SEM cells [3]
Settings	HPLM + 10% dialyzed FBS	RPMI 5 mM glucose + 10% dialyzed FBS
0.000781 µM	137	127
0.00234 µM	119	123
0.00702 µM	120	125
0.0211 µM	133	131
0.0632 µM	134	119
0.19 µM	127	129
0.569 µM	131	147
1.71 µM	131	123
5.12 µM	130	130
15.4 µM	114	118
46.1 µM	78.3	64

AUC of viability dose-response curve
Settings	NOMO1 [4]	P12-Ichikawa [5]	SEM cells [6]
HPLM + 10% dialyzed FBS	453	462	462
RPMI 5 mM glucose + 10% FBS	455	461	461
RPMI 5 mM glucose + 10% dialyzed FBS	455	466	461

O=C(c1ccc(/C=C/c2n[nH]c3ccccc23)cc1)N1CCNCC1
cell viability [%]
Settings	NOMO1 [1]	P12-Ichikawa [2]	SEM cells [3]
HPLM + 10% dialyzed FBS, 0.000781 µM	108	94.8	82.7
HPLM + 10% dialyzed FBS, 0.00234 µM	96.5	101	77.8
HPLM + 10% dialyzed FBS, 0.00702 µM	88.4	98	83.4
HPLM + 10% dialyzed FBS, 0.0211 µM	87.1	99.4	79
HPLM + 10% dialyzed FBS, 0.0632 µM	97.9	111	60.7
HPLM + 10% dialyzed FBS, 0.19 µM	120	102	53.2
HPLM + 10% dialyzed FBS, 0.569 µM	115	108	48.1
HPLM + 10% dialyzed FBS, 1.71 µM	69.4	9.55	16.3
HPLM + 10% dialyzed FBS, 5.12 µM	70.9	13.2	20
HPLM + 10% dialyzed FBS, 15.4 µM	88.7	12.2	19.3
HPLM + 10% dialyzed FBS, 46.1 µM	73.1	19.6	19.8
RPMI 5 mM glucose + 10% FBS, 0.000781 µM	97	92.6	109
RPMI 5 mM glucose + 10% FBS, 0.00234 µM	100	90.8	120
RPMI 5 mM glucose + 10% FBS, 0.00702 µM	94	100	106
RPMI 5 mM glucose + 10% FBS, 0.0211 µM	85.8	91.3	85.3
RPMI 5 mM glucose + 10% FBS, 0.0632 µM	90.7	101	82.7
RPMI 5 mM glucose + 10% FBS, 0.19 µM	86.2	107	56.2
RPMI 5 mM glucose + 10% FBS, 0.569 µM	87.1	102	62.1
RPMI 5 mM glucose + 10% FBS, 1.71 µM	56.2	13.5	10.9
RPMI 5 mM glucose + 10% FBS, 5.12 µM	63.8	16.9	11.7
RPMI 5 mM glucose + 10% FBS, 15.4 µM	58.4	16.3	12.3
RPMI 5 mM glucose + 10% FBS, 46.1 µM	69	19.5	13.3
RPMI 5 mM glucose + 10% dialyzed FBS, 0.000781 µM	86.5	91.2	75.8
RPMI 5 mM glucose + 10% dialyzed FBS, 0.00234 µM	85.6	95.8	78.2
RPMI 5 mM glucose + 10% dialyzed FBS, 0.00702 µM	88.6	86.5	73.1
RPMI 5 mM glucose + 10% dialyzed FBS, 0.0211 µM	97.2	104	80.2
RPMI 5 mM glucose + 10% dialyzed FBS, 0.0632 µM	87.8	99.7	66.3
RPMI 5 mM glucose + 10% dialyzed FBS, 0.19 µM	97.4	98.3	51.9
RPMI 5 mM glucose + 10% dialyzed FBS, 0.569 µM	93.9	100	38.2
RPMI 5 mM glucose + 10% dialyzed FBS, 1.71 µM	54.9	25.3	15.9
RPMI 5 mM glucose + 10% dialyzed FBS, 5.12 µM	49.5	29.6	15.9
RPMI 5 mM glucose + 10% dialyzed FBS, 15.4 µM	65.5	25.8	14.6
RPMI 5 mM glucose + 10% dialyzed FBS, 46.1 µM	71.2	31.2	13.3

AUC of viability dose-response curve
Settings	HPLM + 10% dialyzed FBS	RPMI 5 mM glucose + 10% FBS	RPMI 5 mM glucose + 10% dialyzed FBS
NOMO1 [4]	434	387	383
P12-Ichikawa [5]	332	331	346

CCOC(=O)C(C)(C)Oc1ccc(Cl)cc1
AUC of viability dose-response curve
Settings	NOMO1 [4]	P12-Ichikawa [5]	SEM cells [6]
HPLM + 10% dialyzed FBS	464	459	465
RPMI 5 mM glucose + 10% FBS	453	464	471
RPMI 5 mM glucose + 10% dialyzed FBS	453	461	476

NCCS(=O)(=O)O
AUC of viability dose-response curve
Settings	NOMO1 [4]	P12-Ichikawa [5]	SEM cells [6]
HPLM + 10% dialyzed FBS	441	469	463
RPMI 5 mM glucose + 10% FBS	455	458	471
RPMI 5 mM glucose + 10% dialyzed FBS	449	463	468
